Common to all, as to assay: NCI anticancer screen, dose series, 48 h
Assay [1] relates to T-47D breast.
The subject of assay [2] is LOX IMVI melanoma.
Assay [3] relates to DU-145 prostate.
Assay [4] deals with SN12C renal.
In assay [5] the test system is NCI/ADR-RES ovarian.
In assay [6] the test system is SNB-75 CNS.
Assay [7] concerns SF-539 CNS.
Assay [8] concerns MCF7 breast.
Assay [9] concerns SK-OV-3 ovarian.

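Interpolation was linear, between the two tested concentrations surrounding the appropriate level; five concentrations were tested over 48 hours in 96-well plates. The concentration for 50% growth inhibition is given as GI50. At the TGI there is no net growth.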

Consider `COC(=O)c1cc(=O)[nH]c(=O)[nH]1`, for which the TGI in [1], in [2], in assay [3], in [4], in assay [5] and in assay [6] was over 100 µM in each case.

As to `CCCCC(=O)c1c(O)nc2sccn2c1=O`, the TGI in assay [1], in [2], in [3], in assay [7], in [4] and in assay [5] was over 10 µM throughout. The TGI in [8], in assay [6] and in assay [9] was over 10 µM each time.

As to `CC(C)=NN/C(=N\S(=O)(=O)c1ccc(Oc2cccc(Cl)c2C#N)cc1)Nc1ccc(Cl)cc1`, the TGI in assay [1], in assay [2], in assay [3], in [4], in assay [5] and in [8] was over 100 µM throughout.

Take `CC(C)CNc1nc2ncnc(N)c2[nH]1`: the TGI in assay [1], in [2], in assay [3], in assay [7], in assay [4] and in [5] was over 100 µM each time. For the same molecule, the TGI in [8] and in assay [9] was over 100 µM in each case.

With `COc1ccc2c3c1OC1C(=O)C=CC4(CC2)N(C)CCC314` (stereo not drawn), the TGI in assay [1], in [2], in assay [3], in [4], in [5] and in assay [8] was over 100 µM in each case. Further, the TGI in assay [6] and in assay [9] was over 100 µM throughout.

For `O=S(=O)(c1ccc(NC2=NC(c3ccc(O)cc3)(c3ccccc3O)c3ccccc32)cc1)c1ccc(NC2=NC(c3ccc(O)cc3)(c3ccccc3O)c3ccccc32)cc1` (stereo not drawn), the TGI was over 100 µM in [2]; over 35.4 µM in assay [3]; over 100 µM in assay [7]; over 29.9 µM in assay [4]; over 100 µM in [5]; over 100 µM in assay [8]. Also, the TGI is over 27.5 µM in [6] and over 73.3 µM in assay [9].

For the molecule `COc1ccc(C2=Nc3cc(C)c(C)cc3NC(c3ccccc3)C2)cc1` (stereo not drawn), the TGI in assay [1], in assay [2], in [3], in [7], in assay [4] and in assay [5] was over 100 µM each time. Besides, the TGI in [8] and in assay [9] was over 100 µM throughout.

`Cc1cc(C)nc(SC2=C(Nc3ccc(C)c(Cl)c3)C(=O)N(Cc3ccccc3)C2=O)n1`: the GI50 in assay [2] was over 160000 nM; in assay [3], over 160 µM; in assay [7] it was over 160000 nM; in [5], over 160 µM; in assay [6], over 160000 nM; in assay [9], over 160000 nM. Also, the TGI in assay [2], in assay [3], in assay [7], in [5], in assay [6] and in assay [9] was over 160 µM each time.

On to `COC(=O)C1CCC(=S)N1C(=O)c1ccccc1` (stereo not drawn), for which the TGI in assay [1], in assay [3], in assay [5], in assay [8], in [6] and in [9] was over 100 µM in each case.

Consider `CC(=O)OCC1OC(SC2=N/C(=C\c3ccc(Br)s3)C(=O)N2CN2CCOCC2)C(OC(C)=O)C(OC(C)=O)C1OC(C)=O` (stereo not drawn), for which the TGI in assay [1] turned out to be 91.8 µM; in assay [2] it was 26.8 µM; in assay [3] it was 30.6 µM; in assay [4], 32.2 µM; in assay [5] it was 44 µM; in assay [8], 33.8 µM. Also, the TGI in assay [6] stood at 68.3 µM.

With `C=C/C(C)=C\CC1[C@](C)(O)CC[C@H]2C(C)(C)C(=O)CC[C@]12C` (stereo partly drawn), the TGI in assay [2], in assay [3], in assay [7], in assay [4], in [5] and in [8] was over 100 µM each time. Besides, in assay [6], the TGI was over 100 µM.

On to `COc1ccc(N2C(=O)CC(=O)N(C(=O)COc3ccc(OCC(=O)N4C(=O)CC(=O)N(c5ccc(OC)cc5)C4=S)cc3)C2=S)cc1`, for which the TGI in assay [3], in [4], in assay [5], in assay [8], in assay [6] and in [9] was over 100 µM each time.

With `COc1ccc(CC(N)c2ccc(OC)cc2)cc1` (stereo not drawn), the TGI in [1], in assay [2], in assay [3], in [4], in [5] and in assay [8] was over 100 µM each time. For the same molecule, the TGI in assay [6] and in assay [9] was over 100 µM each time.

Consider `COP(=O)(OC)C(Cc1cn(C(C)=O)c2ccccc12)C(=O)O` (stereo not drawn), for which the TGI in assay [1], in [2], in [3], in assay [4], in assay [5] and in assay [8] was over 100 µM throughout. In addition, the TGI in assay [6] and in assay [9] was over 100 µM throughout.

Take `O=c1[nH]nc(-c2ccccc2)n1/N=C\c1ccccc1`: the TGI in assay [1], in assay [2], in [3], in assay [7], in assay [4] and in assay [5] was over 100 µM in each case. Further, the TGI in assay [8] and in assay [6] was over 100 µM in each case.

As to `Cc1ccc(S(=O)(=O)n2c3ccc(Br)cc3c3nc4ccccc4nc32)cc1`, the TGI in [1], in [2], in assay [3], in assay [4], in assay [5] and in assay [6] was over 100 µM throughout.

As to `Cc1csc(NC23CC4CC(CC(C4)C2)C3)[n+]1C(P(=O)([O-])O)P(=O)(O)O` (stereo not drawn), the TGI in [2], in [3], in assay [7], in assay [5], in assay [8] and in assay [6] was over 100 µM in each case. This molecule also returned a TGI in [9] of over 100 µM.

With `COC(=O)C1(Cc2ccc3c(c2)CCC3)Cc2ccccc2C1O` (stereo not drawn), the TGI in assay [1] was over 100 µM; in [2], 34 µM; in assay [3] it was over 100 µM; in assay [7] it was 33.1 µM; in [4], 29.2 µM; in assay [5], 60.1 µM. For the same molecule, the TGI in [8] amounted to 49.6 µM; in assay [9] it was 44.2 µM.

Consider `CCNCCCn1c2c(c3ccc(Cl)cc3c1=O)C(=O)c1cc(OC)cnc1-2`, for which the GI50 is 161 nM in assay [1]; 0.208 µM in [3]; 506 nM in [7]; 675 nM in assay [4]; 0.282 µM in [5]; 262 nM in [6]. Moreover, the GI50 in assay [9] is 475 nM. For the same molecule, the TGI in [1] turned out to be 1.58 µM; in assay [3] it was 1.56 µM; in [7] it was 1.71 µM; in assay [4], 2.79 µM; in assay [5], 2.53 µM; in [6] it was 1.64 µM. The same molecule gave a TGI in assay [9] of 1.94 µM.

With `C[C@H](NC(=O)C(Cc1ccccc1)(Cc1ccc(O)cn1)NC(=O)c1ccccc1)c1ccccc1` (stereo partly drawn), the TGI in assay [1] was 69.1 µM; in [2], 29.7 µM; in [3], 35.5 µM; in assay [7] it was 34.2 µM; in assay [4], 31.5 µM; in assay [5], 44.6 µM. Further, in [8], the TGI was 75.5 µM.

As to `O=C(NCCCCCCCCCCCCNC(=O)Nc1cccc2ccccc12)Nc1cccc2ccccc12`, the TGI in assay [1] was 36.7 µM; in assay [2] it was 34.2 µM; in assay [3], 70.9 µM; in assay [7], 27 µM; in assay [4], 31.6 µM; in assay [5], 60.6 µM. The values for the TGI in assay [8] and in assay [6] were 35.1 µM and 32.7 µM, respectively.

For `O=c1cc(N2CCCC2)[nH]c(=O)n1Cc1ccccc1`, the TGI in assay [2], in assay [3], in [7], in assay [4], in assay [5] and in assay [8] was over 100 µM each time. The TGI in assay [6] was over 100 µM.

In the case of `ClCCCc1ccccc1C1=NCCc2ccccc21`, the TGI in assay [1], in assay [3], in [7], in assay [4], in [5] and in assay [8] was over 100 µM in each case. Also, the TGI in [6] and in assay [9] was over 100 µM in each case.

On to `Cc1cc(F)ccc1S(=O)(=O)Nc1cc(-c2c(O)ccc3ccccc23)c(O)c2ccccc12`, for which the GI50 was 2910 nM in assay [2]; 4.09 µM in assay [3]; 1830 nM in assay [7]; 2800 nM in assay [4]; 3.05 µM in assay [5]; 2420 nM in [8]. The GI50 in assay [6] is 2320 nM; in [9], 2370 nM. Moreover, the TGI in assay [2] turned out to be 10.8 µM; in assay [3], 14.4 µM; in [7], 3.59 µM; in [4], 15.5 µM; in assay [5], 13.6 µM; in assay [8], 25.6 µM. In addition, the TGI in [6] turned out to be 11.7 µM; in assay [9] it was 11.6 µM.

Regarding `CCOc1ccc(N/C(=C(/C(Cl)=C(/Cl)N(CC)CC)[N+](=O)[O-])n2nnc3ccccc32)cc1`, the TGI was 28.9 µM in assay [1]; 47.4 µM in [7]; 49.6 µM in [4]; 53.9 µM in assay [5]; over 100 µM in [8]; 51.2 µM in assay [6]. The molecule also registered a TGI in [9] of over 100 µM.

For the molecule `Cc1ccc(/C(O)=C/c2nc3ccccc3sc2=O)c(C)c1`, the TGI in assay [1], in assay [2], in [3], in [7], in [4] and in assay [5] was over 100 µM in each case. Also, the TGI in assay [8] and in [9] was over 100 µM throughout.

As for `CCNC(=S)N=Nc1c(O)[nH]c2ccc([N+](=O)[O-])cc12`, the TGI in assay [1], in assay [2], in assay [3], in assay [7], in assay [4] and in [5] was over 100 µM throughout. In addition, the TGI in assay [8] and in assay [9] was over 100 µM each time.

Take `NC(=O)NNc1nc(-c2ccccc2)cs1`: the TGI in assay [1], in assay [2], in [3], in assay [4], in assay [5] and in assay [8] was over 100 µM each time. Besides, the TGI in assay [6] and in assay [9] was over 100 µM each time.

Consider `O=S(Nc1ccccc1)c1ccc(N2CCOCC2)cc1` (stereo not drawn), for which the TGI in assay [1] is 58.9 µM; in assay [2], over 100 µM; in assay [3], over 100 µM; in [7] it was over 100 µM; in assay [4] it was over 100 µM; in assay [5], over 100 µM. In addition, in assay [8], the TGI is over 100 µM.

In the case of `C[N+](C)(C)c1ccc(C(N)C(=O)O)cc1` (stereo not drawn), the TGI in [1], in assay [2], in assay [3], in assay [4], in assay [5] and in [8] was over 100 µM in each case. The TGI in [6] and in [9] was over 100 µM each time.

Take `COC(OC)[C@@H]1OC[C@H](n2cnc3c(N)ncnc32)[C@H]1O`: the TGI in [1], in assay [2], in [3], in assay [7], in assay [4] and in assay [5] was over 100 µM throughout. For the same molecule, the TGI in assay [6] and in assay [9] was over 100 µM in each case.

For `C=C[C@@H](C)[C@H](NS(=O)(=O)c1ccc(C)cc1)C(=O)OCC`, the TGI in assay [2] was 34.7 µM; in assay [3], over 100 µM; in assay [7], over 100 µM; in assay [4] it was over 100 µM; in [5], over 100 µM; in assay [8], 70.6 µM. The TGI was 60.7 µM in assay [6] and over 100 µM in assay [9].

The record behind these values is PubChem BioAssay (NCI).
